# Results: patent US9150577B2, “Heterocyclic compounds containing an indole core” (Boehringer Ingelheim International GmbH, priority 2009, dated 2015)
# Target: Human RSK2 (Homo sapiens (Human), UniProt P51812)
# Assay: Human RSK2 assay (Kinase Glo Plus, residual ATP);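 note: recombinant human RSK2 phosphorylating a substrate peptide, 90 min at 28 °C, leftover ATP read by luminescence, RLU scaled between no-kinase background and uninhibited kinase controls, 4-parameter fit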
# Format: biochemical
# Sequence of Human RSK2 (P51812 whole entry): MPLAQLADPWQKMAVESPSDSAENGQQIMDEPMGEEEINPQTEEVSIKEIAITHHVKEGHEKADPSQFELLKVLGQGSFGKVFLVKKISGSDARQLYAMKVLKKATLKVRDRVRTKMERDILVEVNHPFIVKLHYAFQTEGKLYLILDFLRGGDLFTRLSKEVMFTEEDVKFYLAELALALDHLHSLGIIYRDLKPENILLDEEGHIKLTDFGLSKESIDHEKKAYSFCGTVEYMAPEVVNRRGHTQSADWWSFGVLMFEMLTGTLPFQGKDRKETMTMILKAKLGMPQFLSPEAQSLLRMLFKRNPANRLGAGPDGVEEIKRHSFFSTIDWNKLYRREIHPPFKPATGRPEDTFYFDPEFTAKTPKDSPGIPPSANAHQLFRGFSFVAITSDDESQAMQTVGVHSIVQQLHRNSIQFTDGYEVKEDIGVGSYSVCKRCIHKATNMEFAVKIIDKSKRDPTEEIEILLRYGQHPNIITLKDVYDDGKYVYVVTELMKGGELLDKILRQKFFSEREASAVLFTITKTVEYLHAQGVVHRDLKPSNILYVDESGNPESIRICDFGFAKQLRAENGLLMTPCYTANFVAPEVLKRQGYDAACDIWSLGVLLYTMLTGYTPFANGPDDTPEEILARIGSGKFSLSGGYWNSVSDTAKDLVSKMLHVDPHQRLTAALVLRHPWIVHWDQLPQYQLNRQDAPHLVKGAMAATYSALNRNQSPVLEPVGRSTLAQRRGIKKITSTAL
row,SMILES,IC50
1,"N#Cc1ccc2[nH]c(NC(=O)c3ccc4cc5n(c4c3)CCCNC5=O)nc2c1 [Example 41, N-(5-cyano-1H-benzimidazol-2-yl)-1-oxo-2,3,4,5-tetrahydro-1H-[1,4]diazepino[1,2-a]indole-8-carboxamide]",4.9 nM
2,"Cc1cc(NC(=O)c2ccc3cc4n(c3c2)[C@@H](C)CNC4=O)no1 [Example 132, (4S)-4-methyl-N-(5-methyl-1,2-oxazol-3-yl)-1-oxo-1,2,3,4-tetrahydropyrazino[1,2-a]indole-7-carboxamide]",495 nM
3,"C[C@@H]1CCNC(=O)c2cc3ccc(C(=O)Nc4cnn(Cc5ccccc5)c4)cc3n21 [Example 143, (5R)-N-(1-benzyl-1H-pyrazol-4-yl)-5-methyl-1-oxo-2,3,4,5-tetrahydro-1H-[1,4]diazepino[1,2-a]indole-8-carboxamide]",0.71 nM
4,"Cn1c(NC(=O)c2ccc3cc4n(c3c2)CCCNC4=O)nc2ccc(Cl)cc21 [Example 52, N-(6-chloro-1-methyl-1H-benzimidazol-2-yl)-1-oxo-2,3,4,5-tetrahydro-1H-[1,4]diazepino[1,2-a]indole-8-carboxamide]",170 nM
5,"C[C@@H]1CNC(=O)c2cc3ccc(C(=O)Nc4nc5ccccc5n4CCCN(C)C)cc3n21 [Example 129, (4R)-N-{1-[3-(dimethylamino)propyl]-1H-benzimidazol-2-yl}-4-methyl-1-oxo-1,2,3,4-tetrahydropyrazino[1,2-a]indole-7-carboxamide]",0.7 nM
6,"CC1CCNC(=O)c2cc3ccc(C(=O)Nc4nc5ccccc5[nH]4)cc3n21 (stereo not drawn) [Example 58, N-(1H-benzimidazol-2-yl)-5-methyl-1-oxo-2,3,4,5-tetrahydro-1H-[1,4]diazepino[1,2-a]indole-8-carboxamide]",0.77 nM
7,"C[C@H]1NC(=O)c2cc3ccc(C(=O)Nc4cnn(Cc5ccccc5)c4)cc3n2[C@H]1C [Example 142, (3R,4S)-N-(1-benzyl-1H-pyrazol-4-yl)-3,4-dimethyl-1-oxo-1,2,3,4-tetrahydropyrazino[1,2-a]indole-7-carboxamide]",65.5 nM
8,"N#Cc1ccc(NC(=O)c2ccc3cc4n(c3c2)CCCNC4=O)cc1 [Example 185, N-(4-cyanophenyl)-1-oxo-2,3,4,5-tetrahydro-1H-[1,4]diazepino[1,2-a]indole-8-carboxamide]",106 nM
9,"Cc1noc(NC(=O)c2ccc3cc4n(c3c2)CCCNC4=O)c1Cl [Example 194, N-(4-chloro-3-methyl-1,2-oxazol-5-yl)-1-oxo-2,3,4,5-tetrahydro-1H-[1,4]diazepino[1,2-a]indole-8-carboxamide]",3300 nM
10,"CCn1c(NC(=O)c2ccc3cc4n(c3c2)C(C)(C)CNC4=O)nc2ccccc21 [Example 82, N-(1-ethyl-1H-benzimidazol-2-yl)-4,4-dimethyl-1-oxo-1,2,3,4-tetrahydropyrazino[1,2-a]indole-7-carboxamide]",0.25 nM
11,"CC1CNC(=O)c2cc3ccc(C(=O)Nc4nc5ccccc5n4CCCN(C)C)cc3n2C1 (stereo not drawn) [Example 101, N-{1-[3-(dimethylamino)propyl]-1H-benzimidazol-2-yl}-4-methyl-1-oxo-2,3,4,5-tetrahydro-1H-[1,4]diazepino[1,2-a]indole-8-carboxamide]",13 nM
12,"Cn1c(NC(=O)c2ccc3cc4n(c3c2)CCCNC4=O)nc2cc(Cl)ccc21 [Example 49, N-(5-chloro-1-methyl-1H-benzimidazol-2-yl)-1-oxo-2,3,4,5-tetrahydro-1H-[1,4]diazepino[1,2-a]indole-8-carboxamide]",26 nM
13,"C[C@H]1NC(=O)c2cc3ccc(C(=O)Nc4cnn(C)c4)cc3n2[C@H]1C (relative stereo) [Example 21, cis-3,4-dimethyl-N-(1-methyl-1H-pyrazol-4-yl)-1-oxo-1,2,3,4-tetrahydropyrazino[1,2-a]indole-7-carboxamide]",4.3 nM
14,"CC(C)n1ccc(NC(=O)c2ccc3cc4n(c3c2)CCCNC4=O)n1 [Example 13, 1-oxo-N-[1-(propan-2-yl)-1H-pyrazol-3-yl]-2,3,4,5-tetrahydro-1H-[1,4]diazepino[1,2-a]indole-8-carboxamide]",1600 nM
15,"CN(C)CCCn1c(NC(=O)c2ccc3cc4n(c3c2)CC(C)(C)CNC4=O)nc2cc(Cl)ccc21 [Example 50, N-{5-chloro-1-[3-(dimethylamino)propyl]-1H-benzimidazol-2-yl}-4,4-dimethyl-1-oxo-2,3,4,5-tetrahydro-1H-[1,4]diazepino[1,2-a]indole-8-carboxamide]",34 nM
16,"O=C(Nc1cnn(Cc2ccccc2)c1)c1ccc2cc3n(c2c1)CC1(CC1)CNC3=O [Example 125, N-(1-benzyl-1H-pyrazol-4-yl)-1′-oxo-2′,3′-dihydro-1′H-spiro[cyclopropane-1,4′-[1,4]diazepino[1,2-a]indole]-8′-carboxamide]",11 nM
17,"Cn1cc(NC(=O)c2ccc3cc4n(c3c2)CCCNC4=O)ccc1=O [Example 116, N-(1-methyl-6-oxo-1,6-dihydropyridin-3-yl)-1-oxo-2,3,4,5-tetrahydro-1H-[1,4]diazepino[1,2-a]indole-8-carboxamide]",110 nM
18,"CC(C)(O)Cn1c(NC(=O)c2ccc3cc4n(c3c2)CC(C)(C)CNC4=O)nc2ccccc21 [Example 86, N-[1-(2-hydroxy-2-methylpropyl)-1H-benzimidazol-2-yl]-4,4-dimethyl-1-oxo-2,3,4,5-tetrahydro-1H-[1,4]diazepino[1,2-a]indole-8-carboxamide]",5.9 nM
19,"CC1CCNC(=O)c2cc3ccc(C(=O)Nc4cccnc4)cc3n21 (stereo not drawn) [Example 10, 5-methyl-1-oxo-N-(pyridin-3-yl)-2,3,4,5-tetrahydro-1H-[1,4]diazepino[1,2-a]indole-8-carboxamide]",41 nM
20,"O=C(Nc1cnn(CCN2CCOCC2)c1)c1ccc2cc3n(c2c1)CCCNC3=O [Example 37, N-{1-[2-(morpholin-4-yl)ethyl]-1H-pyrazol-4-yl}-1-oxo-2,3,4,5-tetrahydro-1H-[1,4]diazepino[1,2-a]indole-8-carboxamide]",84 nM
21,"Cc1cc(C)cc(Cn2cc(NC(=O)c3ccc4cc5n(c4c3)CCCNC5=O)cn2)c1 [Example 28, N-[1-(3,5-dimethylbenzyl)-1H-pyrazol-4-yl]-1-oxo-2,3,4,5-tetrahydro-1H-[1,4]diazepino[1,2-a]indole-8-carboxamide]",1.9 nM

# Other lines, results leading:
row,IC50,SMILES
1,2200 nM,"Cn1ccnc1NC(=O)c1ccc2cc3n(c2c1)CCCNC3=O [Example 109, N-(1-methyl-1H-imidazol-2-yl)-1-oxo-2,3,4,5-tetrahydro-1H-[1,4]diazepino[1,2-a]indole-8-carboxamide]"
2,16 nM,"CCCc1cc(NC(=O)c2ccc3cc4n(c3c2)CCCNC4=O)on1 [Example 202, 1-oxo-N-(3-propyl-1,2-oxazol-5-yl)-2,3,4,5-tetrahydro-1H-[1,4]diazepino[1,2-a]indole-8-carboxamide]"
3,89 nM,"CC(C)c1ccc(NC(=O)c2ccc3cc4n(c3c2)CCCNC4=O)cc1 [Example 146, 1-oxo-N-[4-(propan-2-yl)phenyl]-2,3,4,5-tetrahydro-1H-[1,4]diazepino[1,2-a]indole-8-carboxamide]"
4,160 nM,"Cc1cc(NC(=O)c2ccc3cc4n(c3c2)[C@@H](C)[C@H](C)NC4=O)no1 (relative stereo) [Example 168, Trans-3,4-dimethyl-N-(5-methyl-1,2-oxazol-3-yl)-1-oxo-1,2,3,4-tetrahydropyrazino[1,2-a]indole-7-carboxamide]"
5,17 nM,"COc1cc(NC(=O)c2ccc3cc4n(c3c2)CCCNC4=O)ccn1 [Example 204, N-(2-methoxypyridin-4-yl)-1-oxo-2,3,4,5-tetrahydro-1H-[1,4]diazepino[1,2-a]indole-8-carboxamide]"
6,1.3 nM,"CC1CNC(=O)c2cc3ccc(C(=O)Nc4nc5ccccc5n4CCCN(C)C)cc3n21 (stereo not drawn) [Example 100, N-{1-[3-(dimethylamino)propyl]-1H-benzimidazol-2-yl}-4-methyl-1-oxo-1,2,3,4-tetrahydropyrazino[1,2-a]indole-7-carboxamide]"
7,300 nM,"Cc1cnc(NC(=O)c2ccc3cc4n(c3c2)CCCNC4=O)s1 [Example 106, N-(5-methyl-1,3-thiazol-2-yl)-1-oxo-2,3,4,5-tetrahydro-1H-[1,4]diazepino[1,2-a]indole-8-carboxamide]"
8,1700 nM,"O=C(Nc1cccnc1)c1ccc2cc3n(c2c1)CC(F)(F)CNC3=O [Example 152, 4,4-difluoro-1-oxo-N-(pyridin-3-yl)-2,3,4,5-tetrahydro-1H-[1,4]diazepino[1,2-a]indole-8-carboxamide]"
9,240 nM,"C[C@H]1CNC(=O)c2cc3ccc(C(=O)Nc4cccnc4)cc3n2[C@H]1C (relative stereo) [Example 150, Cis-4,5-dimethyl-1-oxo-N-(pyridin-3-yl)-2,3,4,5-tetrahydro-1H-[1,4]diazepino[1,2-a]indole-8-carboxamide]"
10,290 nM,"O=C(Nc1ccccc1)c1ccc2cc3n(c2c1)CCCNC3=O [Example 178, 1-oxo-N-phenyl-2,3,4,5-tetrahydro-1H-[1,4]diazepino[1,2-a]indole-8-carboxamide]"
11,0.89 nM,"CC1(C)CNC(=O)c2cc3ccc(C(=O)Nc4nc5ccccc5[nH]4)cc3n21 [Example 56, N-(1H-benzimidazol-2-yl)-4,4-dimethyl-1-oxo-1,2,3,4-tetrahydropyrazino[1,2-a]indole-7-carboxamide]"
12,3300 nM,"O=C(Nc1cccnc1)c1ccc2cc3n(c2c1)CC1(CCC1)CNC3=O [Example 153, 1′-oxo-N-(pyridin-3-yl)-2′,3′-dihydro-1′H-spiro[cyclobutane-1,4′-[1,4]diazepino[1,2-a]indole]-8′-carboxamide]"
13,895 nM,"C[C@@H]1NC(=O)c2cc3ccc(C(=O)Nc4cccnc4)cc3n2[C@H]1C (relative stereo) [Example 180, Trans-3,4-dimethyl-1-oxo-N-(pyridin-3-yl)-1,2,3,4-tetrahydropyrazino[1,2-a]indole-7-carboxamide]"
14,2.1 nM,"CC1CCNC(=O)c2cc3ccc(C(=O)Nc4cn(C)c(C(=O)NC5CCCC5)n4)cc3n21 (stereo not drawn) [Example 234, N-[2-(cyclopentylcarbamoyl)-1-methyl-1H-imidazol-4-yl]-5-methyl-1-oxo-2,3,4,5-tetrahydro-1H-[1,4]diazepino[1,2-a]indole-8-carboxamide]"
15,34 nM,"O=C(Nc1cnc2ccccc2c1)c1ccc2cc3n(c2c1)CCCNC3=O [Example 190, 1-oxo-N-(quinolin-3-yl)-2,3,4,5-tetrahydro-1H-[1,4]diazepino[1,2-a]indole-8-carboxamide]"
